According to patent publication US20250195520A1, “COMBINATION THERAPY USING A PTPN11 INHIBITOR AND AN EGFR INHIBITOR” (NAVIRE PHARMA, INC., priority 2021, published 2025):
“Also recorded” adds a separate entry of the source.

Assays:
[1] = Plasma concentration by LC-MS/MS in mice bearing HCC827-ER1 tumors (PK/PD study)
Method: (§1) In vivo modeling, treatment and data analysis. […] Dosing started ˜3 weeks after the subcutaneous implantation of the tumor cells. Dosing volume was 5 mL/kg for each compound, and was adjusted based on individual mouse weight. Dosing and sample harvesting followed the schedule below. There was a 6-hour interval between the morning dose and the afternoon dose, and tumor/plasma samples were harvested at three timepoints during the 24-hour dosing cycle.
(§2) Blood collection for pharmacokinetic analysis. Blood from live animals for pharmacokinetic (PK) analyses was obtained via the lateral saphenous vein. The mouse was placed in a restraint tube and the hind leg immobilized in the extended position. Resting the foot of the animal on a solid surface, a sterile 25g needle (BD Microlance 3) was inserted into the saphenous vein on the top of the foot. The needle was removed and the blood collected using an EDTA coated capillary blood tube (Microvette CB 300 K2E) by capillary action to a volume of 100 μL.
The tube was inverted several times to distribute the EDTA evenly and then centrifuged at 13,000 rpm, 4° C. (VWR Micro Star 17R) for 5 minutes to generate plasma. The supernatant (plasma) was carefully transferred to a 1.5 mL tube and stored at −80° C.
(§3) The detection conditions of the mass spectrometer were as follows: capillary voltage, 3 kv; cone voltage, 50 ev; collision energy, 25 ev; source temperature, 150° C.; desolvation temperature, 400° C.; desolvation gas flow, 1000 L/hr; cone gas glow, 0.15 mL/min. […] The injection volume was 5 μL. The LC mobile phase A was 0.1% acetic acidwater and B was 0.1% acetic acid-acetonitrile. […] The column temperature was 40° C. […] All data were processed using the MAssLynx v. 4.0 software.

[2] = Body weight in the HCC827-ER1 xenograft study; conditions: Day 15
Method: In vivo modeling, treatment and data analysis. […] Dosing started ˜3 weeks post the subcutaneous implantation of the tumor cells. Dosing volume was 5 mL/kg for each compound, and was adjusted based on individual mouse weight from the daily measurements. Tumor volume was measured twice a week.
(§4) Data were analyzed using Microsoft Excel and GraphPad Prism 8.0. Day 0 was the day before treatment started. Body weight change was calculated based on the following formulas.
BWi and BW0 are the body weight of an individual mouse on measurement day I and on day 0, respectively.

[3] = system: HCC827 subcutaneous tumors; experiment: HCC827 subcutaneous xenograft, tumor volume; assay type: in vivo, mouse
Method: (§5) Cell lines. The HCC827 cell line was purchased from ATCC. […] The cells were cultured in RPMI-1640 medium (Sigma #RO883)+10% FBS (Sigma #F7524)+2 mM L-glutamine (Sigma #59202C) in 37° C. tissue culture incubator with 5% CO2.
(§6) Test animals. Female athymic nude mice (Envigo UK, Hsd: Athymic Nude-Foxn1nu) were utilized in this experiment. Animals were between 5 and 6 weeks of age at time of xenograft implantation. Animal welfare complies with the UK Animals Scientific Procedures Act 1986 (ASPA) in line with Directive 2010/63/EU of the European Parliament and the Council of 22 Sep. 2010 on the protection of animals used for scientific purposes. All experimental data management and reporting procedures were in strict accordance with applicable Crown Bioscience UK Guidelines and Standard Operating Procedures.
(§7) In vivo modeling, treatment and data analysis. For xenograft studies with the HCC827 and HCC827-ER1 cells, 5 million cells in 200 μL Matrigel (Corning #354234) were injected subcutaneously into the left flank of 5˜6 weeks old female athymic nude mice (Envigo UK). […] Dosing started ˜3 weeks post the subcutaneous implantation of the tumor cells. Dosing volume was 5 mL/kg for each compound, and was adjusted based on individual mouse weight from the daily measurements. Tumor volume was measured twice a week.
as §4

[4] = system: MPAS-plus signature (MAPK pathway) in HCC827-ER1 tumors; experiment: RNA sequencing (QuantSeq), MPAS-plus signature in HCC827-ER1 xenograft tumors; assay type: in vivo, mouse; conditions: for effect on MPAS-plus signature: across timepoints
Method: as §1

[5] = Plasma exposure by LC-MS/MS in the HCC827 xenograft study; conditions: for Formula (10b) Plasma concentration: 6-8 hours post the final dose of formula (10b) 100 mg/kg QD, mean ± SD
Description: as §2, with “μL. The tube was inverted several times to distribute the EDTA evenly and then centrifuged at 13,000 rpm, 4° C. (VWR Micro Star 17R) for 5 minutes to generate plasma. The supernatant (plasma) was carefully transferred to a 1.5 mL tube and stored at −80° C.” for “μL.”
For each analysis, 25 μL of plasma sample was precipitated with 200 μL of acetonitrile containing imipramine (70 ng/mL) as an internal standard.
as §3

[6] = system: DUSP6 mRNA (MAPK pathway signaling) in HCC4006-OsiR cells; experiment: In vitro pharmacodynamic assay, Taqman qRT-PCR of DUSP6 in HCC4006-OsiR cells; assay type: cell-based, human; conditions: osimertinib 100 nM, formula (10b) 3 μM, 4-hour, 48-hour, 7-day treatment
Method: In vitro pharmacodynamic assay—Taqman qRT-PCR assay. The HCC4006-OsiR cells were plated in 6-well plates (Corning #353046) in 2 mL media and allowed to adhere overnight. […] Four hours later, 4-hour samples were harvested by removing media and lysing cells in each well with 350 μL RLT lysis buffer (Qiagen #79216) with 1% 2-mercaptoethanol. Samples were processed either right way or stored at −20° C. until further analysis. On day 3 and day 8, 48-hour samples and 7-day samples were harvested in the same way. Cells harvested at these two timepoints were switched to fresh media containing compounds 24 hours before sample harvesting.
RNA was extracted from lysates using RNeasy mini RNA isolation kit (Qiagen #74106). Isolated RNA was quantified using Nanodrop 8000 (Thermo Fisher). cDNA was synthesized using high capacity cDNA reverse transcription kit (Thermo Fisher #4368813) with 1 μg total RNA per reaction on a BioRad Tetrad2 thermal cycler (25° C. for 10 min, 37° C. for 120 min, 85° C. for 5 min then hold at 4° C.). The cDNA was further diluted 1:10 using ddH2O. Quantitative real-time PCR was conducted using the following Taqman probes and Taqman universal master mix II without UNG (Thermo Fisher #4440040) on QuantStudio 6 in 384-well format (Thermo Fisher), following vendor's protocols. Each well contains a target probe of interest conjugated to FAM dye (DUSP6, Thermo Fisher Assay ID Hs01044001_m1), and an endogenous control conjugated to VIC dye (human RPLPO, Thermo Fisher #4326314E). Each cDNA was run in three technical replicates.
The ΔΔCt method was used to analyze the qRT-PCR data. […] To calculate fold change, the relative mRNA levels of each sample were normalized to that in DMSO treated samples (fold change for DMSO treated samples was set at “1”). Calculations were done in Microsoft Excel and the graphs were generated in GraphPad Prism 8.0.

[7] = system: HCC827-ER1 subcutaneous tumors; experiment: HCC827-ER1 subcutaneous xenograft, tumor volume; assay type: in vivo, mouse; conditions: for Number of regressions: regressions/animals remaining
Method: as §5, §6, §7, §4

[8] = system: DUSP6 mRNA in HCC827-ER1 tumors; experiment: In vivo pharmacodynamic assay, Taqman qRT-PCR of DUSP6 in HCC827-ER1 xenograft tumors; parameters: species or system mouse
Method: as §1

[9] = HCC827 xenograft, formula (10b) 100 mg/kg QD, osimertinib 5 mg/kg QD, PO, 21 days

C=CC(=O)Nc1cc(Nc2nccc(-c3cn(C)c4ccccc34)n2)c(OC)cc1N(C)CCN(C)C [Osimertinib]
osimertinib plasma concentration ([1]; 2 hr post osimertinib (8 hr post (10b)), osimertinib 5 mg/kg PO, mean ± SD): 681 ± 277 nM
osimertinib plasma concentration ([1]; 18 hr post osimertinib (24 hr post (10b)), osimertinib 5 mg/kg PO, mean ± SD): low nanomolar range
osimertinib plasma concentration ([1]; 24 hr post osimertinib (6 hr post (10b)), osimertinib 5 mg/kg PO, quantitation limit 2 nM): BQL
concentration at 2 h ([1]; female, athymic nude, mouse, in vivo, 5 mg/kg, osimertinib plasma concentration, 2 hr post osimertinib (8 hr post (10b)), osimertinib 5 mg/kg PO, mean ± SD): ~700 nM
concentration at 18 h ([1]; female, athymic nude, mouse, in vivo, 5 mg/kg, osimertinib plasma concentration, 18 hr post osimertinib (24 hr post (10b)), osimertinib 5 mg/kg PO, mean ± SD): 2.1 ± 0.14 nM
concentration at 24 h ([1]; female, athymic nude, mouse, in vivo, 5 mg/kg, osimertinib plasma concentration, 24 hr post osimertinib (6 hr post (10b)), osimertinib 5 mg/kg PO, quantitation limit 2 nM): < 2 nM
Mean body weight change [2]: +1.0%
tumor growth (tumor volume) [3, 9]: tumor stasis
tumor growth (tumor volume) ([3]; mouse, in vivo): robust tumor regression
effect on MPAS-plus signature [4]: little effect on the MPAS-plus signature
osimertinib plasma concentration ([5]; 24 hours post the final dose of osimertinib 5 mg/kg QD, HCC827 xenograft model, quantitation limit 2 nM): BQL
concentration at 24 h ([5]; athymic nude, mouse, in vivo, 5 mg/kg): < 2 nM
DUSP6 mRNA levels [6]: did not suppress DUSP6 mRNA levels
Number of regressions ([7]; Day 15, HCC827-ER1 xenograft): 0/4
TGI ([7]; mouse, in vivo): 64%
tumor growth (tumor volume) ([7]; mouse, in vivo): continued to grow during the treatment period

Cc1c(N2CCC3(CC2)CO[C@@H](C)[C@H]3N)nc(C)n(-c2cccc(Cl)c2Cl)c1=O (atropisomer, axis not shown; (Ra)) [Formula (10b), 6-((3S,4S)-4-amino-3-methyl-2-oxa-8-azaspiro[4.5]decan-8-yl)-3-(Ra)-(2,3-dichlorophenyl)-2,5-dimethylpyrimidin-4 (3H)-one]
Formula (10b) Plasma concentration ([1]; 6 hours and 8 hours after dosing, 100 mg/kg, monotherapy and in combination with osimertinib): 30 to 50 µM
10(b) plasma concentration ([1]; 24 hr post (10b) (18 hr post osimertinib), formula (10b) 100 mg/kg PO, mean ± SD): 1.34 ± 0.24 µM
concentration at 6 h ([1]; female, athymic nude, mouse, plasma, oral, 100 mg/kg, 10(b) plasma concentration, 6 hr post (10b) (24 hr post osimertinib), formula (10b) 100 mg/kg PO, mean ± SD): 47.4 ± 5.2 µM
concentration at 8 h ([1]; female, athymic nude, mouse, plasma, oral, 100 mg/kg, 10(b) plasma concentration, 8 hr post (10b) (2 hr post osimertinib), formula (10b) 100 mg/kg PO, mean ± SD): 35.8 ± 9.1 µM
concentration at 24 h ([1]; female, athymic nude, mouse, plasma, oral, 100 mg/kg, 10(b) plasma concentration, 24 hr post (10b) (18 hr post osimertinib), formula (10b) 100 mg/kg PO, mean ± SD): ~1000 nM
Mean body weight change [2]: +6.3%
tumor growth (tumor volume) [3, 9]: suppresses the growth of the HCC827 subcutaneous tumors; also recorded: tumor stasis
mRNA levels of the MPAS-plus genes ([4]; 6-hour and 8-hour after formula (10b) administration): potently suppressed the mRNA levels of the MPAS-plus genes
effect on MPAS-plus signature [4]: suppresses the MPAS-plus signature
Formula (10b) Plasma concentration ([5]; HCC827 xenograft model): 14.1 ± 5.6 µM
Formula (10b) Plasma concentration ([5]; HCC827 xenograft model, listed as formula (10b)): 14.1 µM
suppression of DUSP6 mRNA levels ([8]; 6-hour and 8-hour after formula (10b) dosing, 100 mg/kg): over 90%
suppression of DUSP6 mRNA levels ([8]; across the three timepoints (best suppression), osimertinib 5 mg/kg, formula (10b) 100 mg/kg): suppresses DUSP6 mRNA levels
DUSP6 mRNA levels [6]: reduces the transcript levels of MAPK pathway signature gene DUSP6; also recorded: potently suppressed DUSP6 mRNA levels at all three timepoints tested
TGI ([7]; Day 15, HCC827-ER1 xenograft, formula (10b) 100 mg/kg QD, osimertinib 5 mg/kg QD): 84%
Number of regressions ([7]; Day 15, HCC827-ER1 xenograft): 0/4
tumor growth (tumor volume) ([7]; HCC827-ER1 xenograft, formula (10b) 100 mg/kg QD, osimertinib 5 mg/kg QD, PO, 21 days): suppresses the growth of the HCC827-ER1 tumors; also recorded: tumor stasis
